Experimental data: patent publication US12662491B2 (Redona Therapeutics, Inc., priority 2020, dated 2026)

What follows are compounds tested against T1, Zcchc11 enzyme (Homo sapiens, UniProt Q5TAX3) (assay: TUTase assay (Zcchc11 assay, Lin28a-dependent polyuridylation of pre-let-7)). Settings: Lin28a-dependent Zcchc11 (Z11) TUTase assay; read-out: Potency Lin28a-dep Z11 IC50.
T1 construct: made in house; host or cells: HEK293 cells (Zcchc11); E. coli Rosetta II (LIN28A)
T1 sequence (Q5TAX3 212-1420): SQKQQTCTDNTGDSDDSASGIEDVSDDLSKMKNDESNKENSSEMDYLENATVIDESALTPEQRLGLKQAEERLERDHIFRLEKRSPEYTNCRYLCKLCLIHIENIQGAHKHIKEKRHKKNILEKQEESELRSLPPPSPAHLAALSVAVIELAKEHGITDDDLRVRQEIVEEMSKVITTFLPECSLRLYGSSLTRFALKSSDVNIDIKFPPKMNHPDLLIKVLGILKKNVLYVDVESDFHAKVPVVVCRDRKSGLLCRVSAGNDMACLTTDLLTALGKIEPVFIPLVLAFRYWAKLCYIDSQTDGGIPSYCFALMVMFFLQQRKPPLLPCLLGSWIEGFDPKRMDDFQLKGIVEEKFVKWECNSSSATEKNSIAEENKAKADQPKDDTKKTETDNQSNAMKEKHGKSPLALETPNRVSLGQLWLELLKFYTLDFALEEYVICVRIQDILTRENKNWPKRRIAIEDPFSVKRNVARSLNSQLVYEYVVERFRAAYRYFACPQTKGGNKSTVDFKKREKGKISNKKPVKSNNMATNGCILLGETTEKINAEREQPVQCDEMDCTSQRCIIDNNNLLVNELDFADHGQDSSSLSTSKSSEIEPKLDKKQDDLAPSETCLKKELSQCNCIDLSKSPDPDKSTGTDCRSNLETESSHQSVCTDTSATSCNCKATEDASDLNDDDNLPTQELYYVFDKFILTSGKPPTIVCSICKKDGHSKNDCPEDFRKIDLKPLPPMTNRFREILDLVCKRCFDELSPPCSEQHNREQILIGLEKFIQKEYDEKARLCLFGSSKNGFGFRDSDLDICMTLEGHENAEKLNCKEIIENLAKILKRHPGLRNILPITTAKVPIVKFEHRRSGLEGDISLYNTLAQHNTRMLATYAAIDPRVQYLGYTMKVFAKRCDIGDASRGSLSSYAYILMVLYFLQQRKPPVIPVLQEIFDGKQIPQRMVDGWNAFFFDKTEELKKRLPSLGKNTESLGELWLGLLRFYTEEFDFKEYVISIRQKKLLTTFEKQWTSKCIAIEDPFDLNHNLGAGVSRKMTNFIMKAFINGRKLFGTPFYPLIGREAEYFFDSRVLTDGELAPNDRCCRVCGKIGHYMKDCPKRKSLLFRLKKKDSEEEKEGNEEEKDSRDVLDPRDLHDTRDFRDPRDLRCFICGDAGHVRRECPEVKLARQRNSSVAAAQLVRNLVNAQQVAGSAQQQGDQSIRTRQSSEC
Assay type: biochemical
How it was run: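 Readout: time-dependent quench of 5′-fluorescein pre-let-7 (2 nM) as 3′-rhodamine A20 probe anneals to poly(U) tails. Enzyme 0.2 nM Zcchc11 (res. 212-1420), LIN28A 10 nM, UTP 5 uM; pH 7.3 HEPES, 150 mM KCl, 5 mM MgCl2, RT. 4-parameter IC50; 100% = DMSO, 0% = no UTP.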

SMILES | IC50 [µM]
O=C(O)c1cn(-c2ccc(O)cc2F)c2cc(N3CCC[C@@H]3COc3ccccn3)c(F)cc2c1=O [Example 381, (R)-6-fluoro-1-(2-fluoro-4-hydroxyphenyl)-4-oxo-7-(2-((pyridin-2-yloxy)methyl)pyrrolidin-1-yl)-1,4-dihydroquinoline-3-carboxylic acid] | 1 to 10
O=C(O)c1cn(-c2ccc(O)cc2)c2cc(N3CCC[C@@H]3COc3ccccn3)c(F)cc2c1=O [Example 382, (R)-6-fluoro-1-(4-hydroxyphenyl)-4-oxo-7-(2-((pyridin-2-yloxy)methyl)pyrrolidin-1-yl)-1,4-dihydroquinoline 3-carboxylic acid] | ≤ 1
O=C(O)c1cn(-c2ccc(O)cc2C(F)(F)F)c2cc(N3CCC[C@@H]3COc3ccccn3)c(F)cc2c1=O [Example 383, (R)-6-fluoro-1-(4-hydroxy-2-(trifluoromethyl)phenyl)-4-oxo-7-(2-((pyridin-2-yloxy)methyl)pyrrolidin-1-yl)-1,4-dihydroquinoline-3-carboxylic acid] | 10 to 50
O=C(O)c1cn(-c2ccc(O)cc2Cl)c2cc(N3CCC[C@@H]3COc3ccccn3)c(F)cc2c1=O [Example 384, (R)-1-(2-chloro-4-hydroxyphenyl)-6-fluoro-4-oxo-7-(2-((pyridin-2-yloxy)methyl)pyrrolidin-1-yl)-1,4-dihydroquinoline-3-carboxylic acid] | 1 to 10
O=C(O)c1cn(-c2ccc(O)c(F)c2)c2cc(N3CCC[C@@H]3COc3ccccn3)c(F)cc2c1=O [Example 385, (R)-6-fluoro-1-(3-fluoro-4-hydroxyphenyl)-4-oxo-7-(2-((pyridin-2-yloxy)methyl)pyrrolidin-1-yl)-1,4-dihydroquinoline-3-carboxylic acid] | ≤ 1
O=C(O)c1cn(-c2cc(F)ccc2Cl)c2cc(N3CCC[C@@H]3COc3ccccn3)c(F)cc2c1=O [Example 386, (R)-1-(2-chloro-5-fluorophenyl)-6-fluoro-4-oxo-7-(2-((pyridin-2-yloxy)methyl)pyrrolidin-1-yl)-1,4-dihydroquinoline-3-carboxylic acid] | 1 to 10
O=C(O)c1cn(-c2cc(F)ccc2F)c2cc(N3CCC[C@@H]3COc3ccccn3)c(F)cc2c1=O [Example 387, (R)-1-(2,5-difluorophenyl)-6-fluoro-4-oxo-7-(2-((pyridin-2-yloxy)methyl)pyrrolidin-1-yl)-1,4-dihydroquinoline-3-carboxylic acid] | 1 to 10
O=C(O)c1cn(-c2cc(F)cc(F)c2)c2cc(N3CCC[C@@H]3COc3ccccn3)c(F)cc2c1=O [Example 388, (R)-1-(3,5-difluorophenyl)-6-fluoro-4-oxo-7-(2-((pyridin-2-yloxy)methyl)pyrrolidin-1-yl)-1,4-dihydroquinoline-3-carboxylic acid] | 1 to 10
Cc1cc(C)cc(-n2cc(C(=O)O)c(=O)c3cc(F)c(N4CCC[C@@H]4COc4ccccn4)cc32)c1 [Example 389, (R)-1-(3,5-dimethylphenyl)-6-fluoro-4-oxo-7-(2-((pyridin-2-yloxy)methyl)pyrrolidin-1-yl)-1,4-dihydroquinoline-3-carboxylic acid] | 1 to 10
Cc1cccc(F)c1-n1cc(C(=O)O)c(=O)c2cc(F)c(N3CCC[C@@H]3COc3ccccn3)cc21 [Example 390, (R)-6-fluoro-1-(2-fluoro-6-methylphenyl)-4-oxo-7-(2-((pyridin-2-yloxy)methyl)pyrrolidin-1-yl)-1,4-dihydroquinoline-3-carboxylic acid] | 1 to 10
Cc1cccc(-n2cc(C(=O)O)c(=O)c3cc(F)c(N4CCC[C@@H]4COc4ccccn4)cc32)c1 [Example 391, (R)-6-fluoro-4-oxo-7-(2-((pyridin-2-yloxy)methyl)pyrrolidin-1-yl)-1-(m-tolyl)-1,4-dihydroquinoline-3-carboxylic acid] | ≤ 1
Cc1cccc(-n2cc(C(=O)O)c(=O)c3cc(F)c(N4CCC[C@@H]4COc4ccccn4)cc32)c1C [Example 392, (R)-1-(2,3-dimethylphenyl)-6-fluoro-4-oxo-7-(2-((pyridin-2-yloxy)methyl)pyrrolidin-1-yl)-1,4-dihydroquinoline-3-carboxylic acid] | ≤ 1
Cc1ccc(F)cc1-n1cc(C(=O)O)c(=O)c2cc(F)c(N3CCC[C@@H]3COc3ccccn3)cc21 [Example 393, (R)-6-fluoro-1-(5-fluoro-2-methylphenyl)-4-oxo-7-(2-((pyridin-2-yloxy)methyl)pyrrolidin-1-yl)-1,4-dihydroquinoline-3-carboxylic acid] | 1 to 10
Cc1ccc(-n2cc(C(=O)O)c(=O)c3cc(F)c(N4CCC[C@@H]4COc4ccccn4)cc32)c(C)c1 [Example 394, (R)-1-(2,4-dimethylphenyl)-6-fluoro-4-oxo-7-(2-((pyridin-2-yloxy)methyl)pyrrolidin-1-yl)-1,4-dihydroquinoline-3-carboxylic acid] | 1 to 10
Cc1cc(-n2cc(C(=O)O)c(=O)c3cc(F)c(N4CCC[C@@H]4COc4ccccn4)cc32)ccc1O [Example 395, (R)-6-fluoro-1-(4-hydroxy-3-methylphenyl)-4-oxo-7-(2-((pyridin-2-yloxy)methyl)pyrrolidin-1-yl)-1,4-dihydroquinoline-3-carboxylic acid] | 1 to 10
Cc1cc(O)ccc1-n1cc(C(=O)O)c(=O)c2cc(F)c(N3CCC[C@@H]3COc3ccccn3)cc21 [Example 396, (R)-6-fluoro-1-(4-hydroxy-2-methylphenyl)-4-oxo-7-(2-((pyridin-2-yloxy)methyl)pyrrolidin-1-yl)-1,4-dihydroquinoline-3-carboxylic acid] | 1 to 10
Cc1c(F)cccc1-n1cc(C(=O)O)c(=O)c2cc(F)c(N3CCC[C@@H]3COc3ccccn3)cc21 [Example 397, (R)-6-fluoro-1-(3-fluoro-2-methylphenyl)-4-oxo-7-(2-((pyridin-2-yloxy)methyl)pyrrolidin-1-yl)-1,4-dihydroquinoline-3-carboxylic acid] | 1 to 10
COc1ccc(Cl)c(-n2cc(C(=O)O)c(=O)c3cc(F)c(N4CCC[C@@H]4COc4ccccn4)cc32)c1 [Example 398, (R)-1-(2-chloro-5-methoxyphenyl)-6-fluoro-4-oxo-7-(2-((pyridin-2-yloxy)methyl)pyrrolidin-1-yl)-1,4-dihydroquinoline-3-carboxylic acid] | 1 to 10
COc1cccc(-n2cc(C(=O)O)c(=O)c3cc(F)c(N4CCC[C@@H]4COc4ccccn4)cc32)c1 [Example 399, (R)-6-fluoro-1-(3-methoxyphenyl)-4-oxo-7-(2-((pyridin-2-yloxy)methyl)pyrrolidin-1-yl)-1,4-dihydroquinoline-3-carboxylic acid] | ≤ 1
COc1ccc(F)c(-n2cc(C(=O)O)c(=O)c3cc(F)c(N4CCC[C@@H]4COc4ccccn4)cc32)c1 [Example 400, (R)-6-fluoro-1-(2-fluoro-5-methoxyphenyl)-4-oxo-7-(2-((pyridin-2-yloxy)methyl)pyrrolidin-1-yl)-1,4-dihydroquinoline-3-carboxylic acid] | 1 to 10
COc1ccc(-n2cc(C(=O)O)c(=O)c3cc(F)c(N4CCC[C@@H]4COc4ccccn4)cc32)cc1 [Example 401, (R)-6-fluoro-1-(4-methoxyphenyl)-4-oxo-7-(2-((pyridin-2-yloxy)methyl)pyrrolidin-1-yl)-1,4-dihydroquinoline-3-carboxylic acid] | ≤ 1
O=C(O)c1cn(-c2cnccn2)c2cc(N3CCC[C@@H]3COc3ccccn3)c(F)cc2c1=O [Example 402, (R)-6-fluoro-4-oxo-1-(pyrazin-2-yl)-7-(2-((pyridin-2-yloxy)methyl)pyrrolidin-1-yl)-1,4-dihydroquinoline-3-carboxylic acid] | 1 to 10
O=C(O)c1cn(-c2ccccc2CO)c2cc(N3CCC[C@@H]3COc3ccccn3)c(F)cc2c1=O [Example 403, (R)-6-fluoro-1-(2-(hydroxymethyl)phenyl)-4-oxo-7-(2-((pyridin-2-yloxy)methyl)pyrrolidin-1-yl)-1,4-dihydroquinoline-3-carboxylic acid] | 1 to 10
